These results are taken from publication PMC5622079, “Control of leucine-dependent mTORC1 pathway through chemical intervention of leucyl-tRNA synthetase and RagD interaction” (Nature Communications, 2017).

Structures are written as SMILES.

Assay [1] addresses T1, Leucyl-tRNA synthetase (LRS) (Homo sapiens, UniProt Q9P2J5). Put plainly: HDX-MS (with BC-LI-0198) and thermal shift. On the set-up: gene LARS1; human full-length LRS, N-terminal His9-tag. In kind it is binding.
In assay [2] the target is T1, Leucyl-tRNA synthetase (LRS). Put plainly: SPR (Biacore T-200, immobilised His-LRS). Details: gene LARS1; His-LRS WT. In kind it is binding. In general terms: SPR reads the build-up and loss of mass on a sensor chip optically.

T1 sequence (Q9P2J5 whole entry): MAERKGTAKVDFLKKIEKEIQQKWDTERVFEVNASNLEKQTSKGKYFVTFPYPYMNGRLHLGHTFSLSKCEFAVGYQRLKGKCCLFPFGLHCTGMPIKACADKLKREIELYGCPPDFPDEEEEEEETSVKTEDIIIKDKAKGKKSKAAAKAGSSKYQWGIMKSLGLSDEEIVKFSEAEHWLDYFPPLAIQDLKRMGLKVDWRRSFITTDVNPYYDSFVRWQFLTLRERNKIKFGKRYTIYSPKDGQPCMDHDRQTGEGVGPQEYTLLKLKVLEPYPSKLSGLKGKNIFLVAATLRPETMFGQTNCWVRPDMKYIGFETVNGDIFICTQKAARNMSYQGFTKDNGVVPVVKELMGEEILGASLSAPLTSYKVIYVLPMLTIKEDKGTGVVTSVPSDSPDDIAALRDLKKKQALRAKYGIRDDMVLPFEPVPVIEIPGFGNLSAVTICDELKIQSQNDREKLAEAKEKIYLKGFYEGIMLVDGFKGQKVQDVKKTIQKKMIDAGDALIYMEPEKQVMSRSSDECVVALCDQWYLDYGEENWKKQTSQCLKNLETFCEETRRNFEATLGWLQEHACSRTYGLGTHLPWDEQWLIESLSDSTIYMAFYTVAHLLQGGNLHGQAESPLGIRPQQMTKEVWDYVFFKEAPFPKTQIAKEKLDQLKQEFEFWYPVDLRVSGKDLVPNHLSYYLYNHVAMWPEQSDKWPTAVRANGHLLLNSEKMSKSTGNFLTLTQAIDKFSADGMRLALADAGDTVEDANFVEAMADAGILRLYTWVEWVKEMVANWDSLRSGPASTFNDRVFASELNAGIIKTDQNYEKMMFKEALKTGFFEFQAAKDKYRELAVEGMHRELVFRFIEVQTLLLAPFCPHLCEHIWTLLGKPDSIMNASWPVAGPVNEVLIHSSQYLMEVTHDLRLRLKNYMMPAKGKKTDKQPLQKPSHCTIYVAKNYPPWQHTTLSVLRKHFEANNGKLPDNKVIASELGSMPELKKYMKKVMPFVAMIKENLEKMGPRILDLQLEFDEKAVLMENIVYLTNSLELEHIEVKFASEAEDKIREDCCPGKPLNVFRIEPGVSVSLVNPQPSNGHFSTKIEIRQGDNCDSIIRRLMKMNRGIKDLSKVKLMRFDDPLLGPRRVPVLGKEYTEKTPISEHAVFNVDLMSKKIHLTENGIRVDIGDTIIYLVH

As for `CC(C)C[C@H](N)C(=O)NS(=O)(=O)OC[C@H]1O[C@@H](n2cnc3c(N)ncnc32)[C@H](O)[C@@H]1O` [Leu-AMS], the “HDX-MS (with BC-LI-0198) and thermal shift” value in assay [1] was “HDX)-MS assays for LRS bound to BC-LI-0198 and Leu-AMS, a leucyl-sulfamoyl-adenylate analog of leucyl adenylate”.

For orientation: Kd means the constant that tells how readily two partners part at equilibrium. The low end stands for higher affinity, the high end for lower affinity. On to `Cc1c(C(C)C)c(=O)n(-c2ccc(S(=O)(=O)NCCOc3ccccc3)cc2)n1C` [BC-LI-0186], for which the Kd in assay [2] was determined as 42.1 nM.
